Several values for one entry are separate records, joined by “and”; a condition that tells them apart may be missing. Equal entries are not always repeated.
Assays:
[1] = molecular target: T1, CFTR ΔF508 (Homo sapiens, UniProt P13569, DEL508-508); test: TECC assay, primary bronchial epithelial cells from CF patients homozygous for CFTR ΔF508; assay type: cell-based; details: for ΔIsc / Current increase: TECC assay; for Current increase: difference between ΔIsc with compound and ΔIsc DMSO (baseline); for EC50: primary bronchial epithelial cells, CFTR ΔF508, several values in a cell = repeat determinations
T1 construct: host or cells: primary bronchial epithelial cells from CF patients homozygous for ΔF508, pre-treated with VX809
Experimental: 7.2.1. Primary Bronchial Epithelial Cells Protocol
The TECC (Tranepithelial Clamp Circuit, EP-design) assay measures the functionality of the cystic fibrosis Transmembrane Conductance regulator (CFTR) by measuring the short circuit current (ISC) generated over the basolateral and apical membrane of lung epithelial cells. In TECC the transepithelial potential PD and transepithelial resistance (Rt) are measured in an open circuit and transformed to ISC using Ohm's law. 24 wells can be measured simultaneously allowing a higher throughput compared to Ussing chambers.
For this purpose, bronchial epithelial cells isolated from CF patients homozygous for the CFTR ΔF508 mutation (hAEC-CF, Epithelix) are plated on type IV collagen-coated Transwell supports (Costar). Human airway epithelia are generated by provision of an air-liquid interface for 21 days to form well-differentiated polarized cultures that resemble in vivo pseudo-stratified ciliated epithelium (Fulcher et al., 2005). In the case of the homozygous ΔF508 CFTR samples, the differentiated cells are treated with 3 μM VX809 (2626 South Loop West, Suite 225, Houston, Tex. 77054 USA, Cat n#51565) to allow sufficient expression of properly folded CFTR protein on the membrane (48 hours basolateral treatment and 24 hours apical treatment), prior to electrophysiological recordings. […] G551D/ΔF508, differentiated cells are used as such for the recordings.
Information on the compounds can be retrieved on the homozygous ΔF508 CFTR samples looking at increased CFTR activity when compounds are added in an acute mode or in a chronic mode. On G551D/ΔF508 CFTR heterozygous samples compounds are added in an acute mode to the differentiated cells.
For the acute mode, for electrophysiological recording, the human airway epithelia are mounted in the TECC heating plate for electrophysiological measurement and kept at 37° C. The epithelia are bathed in a NaCl-Ringer solution (120 mM NaCl, 25 mM NaHCO3, 1.2 mM CaCl2, 1.2 mM MgCl2, 0.8 mM KH2PO4, 0.8 mM K2HPO4, pH 7.4, 5 mM glucose) on both the basolateral and apical sides. Apical amiloride is used to inhibit the endogenous ENaC currents while forkolin is applied on both apical and basolateral side to stimulate CFTR. After forskolin triggering, compounds are added on both sides to test their potential for increasing CFTR gating. Measurements are done during a 20 minute timeframe with recordings every 2 minutes. The increase in ISC is used as a measure for the increased CFTR activity, EC50 values can be generated by measuring impact of different concentrations of compound on ISC on primary cells, for this purpose each transwell is treated with a different compound concentration. Inh-172, an inhibitor specific for CFTR, is used to test the specificity of the tested compounds.
For the chronic mode, the differentiated cells are treated with 3 μM VX809 (2626 South Loop West, Suite 225, Houston, Tex. 77054 USA, Cat n#51565) and potentiator compounds at different concentrations (48 hours basolateral treatment and 24 hours apical treatment), prior to electrophysiological recordings. For electrophysiological recording, the human airway epithelia are mounted in the TECC heating plate for electrophysiological measurement and kept at 37° C. […]

[2] = molecular target: T2, CFTR ΔF508 mutant (Homo sapiens, UniProt P13569, DEL508-508); test: YFP-halide influx assay for the CFTR-ΔF508 mutation (96 well, CFBE41o- cells); assay type: cell-based; details: compounds of the invention, 96 well, forskolin 10.67 μM, read-out: EC50 measured by YFP-halide influx assay for the CFTR-ΔF508
T2 construct: expressed in transfected cells; host or cells: CFBE41o- (adenoviral transduction)
Summary of the method: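 CFBE41o- cells were adenovirally transduced with CFTR ΔF508 and the halide-sensitive YFP H148Q/I152L. They were then corrected either at 27 °C for 24 h or with a CFTR modulator for 24 h at 37 °C. After iodide injection, YFP quenching over 7 s was expressed as 1−F/F0, and EC50 was derived from the concentration–response plot.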

T2 sequence (P13569 with tags, fused parts or gaps DEL508-508): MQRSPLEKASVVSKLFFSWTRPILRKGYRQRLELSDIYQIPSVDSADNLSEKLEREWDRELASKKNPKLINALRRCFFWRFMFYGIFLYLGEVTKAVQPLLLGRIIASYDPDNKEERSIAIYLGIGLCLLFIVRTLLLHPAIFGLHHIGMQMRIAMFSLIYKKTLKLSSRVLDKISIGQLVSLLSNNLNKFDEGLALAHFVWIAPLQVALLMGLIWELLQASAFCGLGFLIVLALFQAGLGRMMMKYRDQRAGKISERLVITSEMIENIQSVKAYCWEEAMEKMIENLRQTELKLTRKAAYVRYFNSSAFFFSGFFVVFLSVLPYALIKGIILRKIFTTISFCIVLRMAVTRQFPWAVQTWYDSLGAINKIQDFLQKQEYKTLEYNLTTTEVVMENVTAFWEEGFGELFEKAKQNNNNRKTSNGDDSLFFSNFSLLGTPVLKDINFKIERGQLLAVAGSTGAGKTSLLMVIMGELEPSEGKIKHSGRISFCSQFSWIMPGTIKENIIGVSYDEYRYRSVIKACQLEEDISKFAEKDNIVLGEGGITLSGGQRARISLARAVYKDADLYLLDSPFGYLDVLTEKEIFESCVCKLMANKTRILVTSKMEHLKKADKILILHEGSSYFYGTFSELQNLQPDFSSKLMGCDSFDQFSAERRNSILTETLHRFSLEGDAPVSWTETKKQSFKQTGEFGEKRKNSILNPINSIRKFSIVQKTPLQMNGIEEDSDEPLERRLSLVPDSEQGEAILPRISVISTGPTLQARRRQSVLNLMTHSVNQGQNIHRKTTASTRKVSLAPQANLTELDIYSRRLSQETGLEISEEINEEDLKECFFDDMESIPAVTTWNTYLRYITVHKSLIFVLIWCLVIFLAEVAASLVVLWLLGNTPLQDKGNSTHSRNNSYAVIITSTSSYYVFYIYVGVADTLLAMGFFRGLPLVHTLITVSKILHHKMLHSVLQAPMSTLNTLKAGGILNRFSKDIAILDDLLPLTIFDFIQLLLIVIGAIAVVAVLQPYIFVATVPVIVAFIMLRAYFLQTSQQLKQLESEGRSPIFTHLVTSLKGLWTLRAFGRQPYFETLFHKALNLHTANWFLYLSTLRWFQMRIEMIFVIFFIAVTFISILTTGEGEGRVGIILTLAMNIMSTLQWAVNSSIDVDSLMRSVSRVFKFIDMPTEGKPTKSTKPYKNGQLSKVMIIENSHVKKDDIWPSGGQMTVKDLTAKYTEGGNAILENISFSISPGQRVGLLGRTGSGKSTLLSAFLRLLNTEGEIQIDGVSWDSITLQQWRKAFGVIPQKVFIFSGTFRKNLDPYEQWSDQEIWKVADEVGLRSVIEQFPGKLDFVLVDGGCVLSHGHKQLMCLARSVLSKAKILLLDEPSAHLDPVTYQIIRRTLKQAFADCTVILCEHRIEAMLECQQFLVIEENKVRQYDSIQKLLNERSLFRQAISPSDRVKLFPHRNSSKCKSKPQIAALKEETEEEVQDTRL
T1 sequence (P13569 with tags, fused parts or gaps DEL508-508): as above

Row | ΔIsc ([1]; compound at 50 nM (Table XV)) [μA/cm^2] | ΔIsc ([1]; compound at 50 nM (Table XVI)) [μA/cm^2] | Current increase ([1]; compound at 50 nM) [μA/cm^2] | ΔIsc ([1]; compound at 100 nM (Table XVI)) [μA/cm^2] | ΔIsc ([1]; compound at 200 nM (Table XVI)) [μA/cm^2] | ΔIsc ([1]; compound at 3 μM) [μA/cm^2] | Current increase ([1]; compound at 3 μM) [μA/cm^2] | activity on the CFTR protein in TECC assay (ΔISC vs DMSO baseline) ([1]; at 3 μM, or 50 nM, or 50/100/200 nM) | EC50 [1] | EC50 [2] [nM] | Structure (SMILES)
1 | 4.5996 | 4.5996 | 4.9244 | 4.9327 | 5.0457 | 10.9207 | 11.6634 | shows an activity | 37 nM | 10 | CC1(C)Cc2c(sc(NC(=O)c3ccn[nH]3)c2C(N)=O)C(C)(C)O1 [Compound 2, N-(3-carbamoyl-5,5,7,7-tetramethyl-5,7-dihydro-4H-thieno[2,3-c]pyran-2-yl)-1H-pyrazole-5-carboxamide]
2 |  |  |  |  |  | 4.6728 | 5.1939 |  |  | 32 | CC1(C)Cc2c(sc(NC(=O)C3(O)CC3)c2C(N)=O)C(C)(C)O1 [Compound 4, 2-(1-hydroxycyclopropanecarboxamido)-5,5,7,7-tetramethyl-5,7-dihydro-4H-thieno[2,3-c]pyran-3-carboxamide]
3 |  |  |  |  |  |  |  |  | 237 nM and 65 nM | 28 | CC1(C)Cc2c(sc(NC(=O)C3(CO)CC3)c2C(N)=O)C(C)(C)O1 [Compound 9, 2-(1-(hydroxymethyl)cyclopropanecarboxamido)-5,5,7,7-tetramethyl-5,7-dihydro-4H-thieno[2,3-c]pyran-3-carboxamide]
4 |  |  |  |  |  | 3.9356 | 4.4567 |  |  | 121 | CC1(C)Cc2c(sc(NC(=O)C(C)(C)CO)c2C(N)=O)C(C)(C)O1 [Compound 10, 2-(3-hydroxy-2,2-dimethylpropanamido)-5,5,7,7-tetramethyl-5,7-dihydro-4H-thieno[2,3-c]pyran-3-carboxamide]

Source: patent US9351955B2, “Compounds and pharmaceutical compositions thereof for the treatment of cystic fibrosis” (Galapagos NV, priority 2013, dated 2016)
